Values quoted from earlier work, collected in patent US20120141611A1, “METHODS AND COMPOSITIONS USING ERGOTHIONEINE TO TREAT A VARIETY OF HEALTH RELATED FACTORS” (Oxis International Inc., priority 2010, published 2012).
Where “and” joins values, the source holds several entries; their conditions need not be identical. Equal entries are not always repeated. Where two headings read alike, the source gives them in different places.

Assays:
[1] = cited from earlier work
spermatozoa = conditions: cited from earlier work
erythrocytes = conditions: rats, administered in the diet; cited from earlier work
[2] = Fowl; cited from earlier work
glutathione peroxidase = conditions: mouse liver cytosol fractions; cited from earlier work
Mn-superoxide dismutase = target: T1, Mn-superoxide dismutase (Mus musculus, UniProt P09671); conditions: 12.5 mM; cited from earlier work
T1 sequence (P09671 25-222): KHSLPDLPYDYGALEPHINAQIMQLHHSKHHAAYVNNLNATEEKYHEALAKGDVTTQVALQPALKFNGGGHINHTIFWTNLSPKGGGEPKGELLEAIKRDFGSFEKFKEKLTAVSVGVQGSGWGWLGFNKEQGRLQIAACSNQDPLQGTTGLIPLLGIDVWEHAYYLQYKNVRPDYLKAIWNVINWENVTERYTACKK

A549 cells = conditions: cited from earlier work
[3] = cited from earlier work; remark: listed apart in the source
hepatic microsomes = conditions: NADPH or ascorbic acid challenge; cited from earlier work
[4] = rats, 8 mg/100 gm body weight for 7 days pre-administration; cited from earlier work
[5] = TLC densitometry, cited from earlier work
human red cell cells = conditions: 1 mM, intact human red cells in vitro; cited from earlier work
[6] = into the organs, principally the liver; cited from earlier work
erythrocyte membrane = conditions: cited from earlier work
[7] = cited from earlier work; remark: listed apart in the source

For C[N+](C)(C)[C@@H](Cc1c[nH]c(=S)[nH]1)C(=O)[O-] [Ergothioneine, ergothioneine], the “Concentration of LE in the lens of the human eye” value (from here on “Concentration of LE”) ([1]; Hypermature cataract) is listed as 60.8 mg LE/100 gm and 60.8 +/− 9.8 mg LE/100 gm, the “Concentration of LE” value ([1]; Immature cortical cataract) is listed as 79.6 mg LE/100 gm and 79.4 +/− 11.7 mg LE/100 gm and the “Concentration of LE” value ([1]; Immature nuclear cataract) is listed as 94.2 mg LE/100 gm and 94.2 +/− 7.3 mg LE/100 gm. The “Concentration of LE” value ([1]; Mature cataract) was 71.7 mg LE/100 gm and 71.7 +/− 13.7 mg LE/100 gm, the “Concentration of LE” value ([1]; Normal lens) was 115.7 mg LE/100 gm and 115.7 +/− 6.3 mg LE/100 gm and the “Effect on spermatozoa viability and survival under hydrogen peroxide” value (spermatozoa) was “counteracts the effects of hydrogen peroxide on spermatozoa viability and survival”. For the same molecule, the “Erythrocyte lactate level on starvation” value (erythrocytes) was “prevented a 40% starvation-induced diminution”, the “Concentration of l-ergothioneine in the blood” value (from here on “Concentration … in the blood”) [2] was 2-10 mg/100 ml blood and the Glutathione peroxidase activity (glutathione peroxidase) was “markedly increased”. The “Mitochondrial Mn-superoxide dismutase activity” value (Mn-superoxide dismutase) was “nearly doubled”, the “H2O2 and TNF-alpha imposed oxidative stress in IL-8-CAT reporter system” value (A549 cells) was “inhibits” and the “Concentration … in the blood” value ([3]; G. Pig) was 1-4 mg/100 ml blood. The Ergothioneine in brain ([3]; brains of guinea-pigs) was 10 µg/g, the “NADPH-dependent enzymatic lipid peroxidation” value (hepatic microsomes) was “inhibits” and the “Hepatic injury after a single injection of ethionine” value [4] was “inhibited”. For the same molecule, the “Hepatic lipid peroxide formation” value [4] was “reduced”, the “Level in rat tissue” value ([5]; brain) was 0.41 mg/100 g and the “Level in rat tissue” value ([5]; kidney) was 1.58 mg/100 g. The “Level in rat tissue” value ([5]; liver) was 7.82 mg/100 g, the “Level in rat tissue” value ([5]; plasma) was 0.21 mg/100 g and the “Level in rat tissue” value ([5]; testicle) was 0.5 mg/100 g. For the same molecule, the Glycolytic activity (human red cell cells) was “significant increase in glycolytic activity”, the “Disappearance from the plasma after intravenous administration” value [6] was “rapid disappearance” and the “Amount directly penetrating the erythrocyte membrane” value (erythrocyte membrane) was under 1%. The “Concentration … in the blood” value ([7]; Man) was 1-4 mg/100 ml blood and the “Levels in human blood cells” value ([7]; healthy males from Saudi Arabia) was 1-4 mg/100 mL.
